Patent publication US11046681B2, “Substituted piperidines for the treatment of cancer” (LES LABORATOIRES SERVIER, priority 2016, dated 2021)

Legend:
[1] = molecular target: His-His-USP7 (aa208-560, [C315A]) (Homo sapiens (Human), UniProt Q93009, C315A); assay: Evaluation of the inhibition of USP7 by Fluorescence Intensity (FLINT) readings; type: biochemical; conditions: 0.25 nM USP7, 60 minutes at 30° C. preincubation, 500 nM Ubiquitin-Rhodamine-110 substrate, 50% reduction in kinetic rate
Experimental: USP7 activity was measured using Rhodamine-110 c-terminal labelled Ubiquitin as a substrate (Viva Biosciences). Incubation with USP7 results in the release of Rhodamine-110 leading to an increase in fluorescence which can be used in the continuous measurement of USP7 activity.
The USP7 reactions were performed in a 50 μL volume, in 384 well black solid low binding plates (Corning #3575). The reaction buffer consisted of 100 mM Bicine pH 8.0, 0.01% TritonX100, 1 mM TCEP, and 10% DMSO.
0.25 nM His-His-USP7 (aa208-560, [C315A]) was incubated with compound (final concentration 10% DMSO) for 60 minutes at 30° C. The reaction was then initiated by the addition of 500 nM Ubiquitin-Rhodamine-110 substrate and the plate read every 3 minutes for 21 minutes to measure the release of Rhodamine-110. Fluorescence Intensity (FLINT) readings were measured using a […] Neo plate reader (Ex.485 nm, Em.535 nm).
The inhibition of increasing doses of compound was expressed as a percentage reduction in kinetic rate compared to the kinetic rates established between ‘DMSO only’ and ‘total inhibition’ controls (no USP7). The inhibitory concentrations that gave a 50% reduction in kinetic rate (IC50) were determined, from 11-point dose response curves, in XL-Fit using a 4-Parameter Logistic Model (Sigmoidal Dose-Response Model).

[2] = tested on: MM1S multiple myeloma tumour cell line; assay: In vitro cytotoxicity, Microculture Tetrazolium Assay (MTT) on MM1S cells; type: cell-based; conditions: Homo sapiens, MM1.S, exposed for 96 hours, cell viability by MTT
Experimental: The cytotoxicity studies were carried out on the MM1S multiple myeloma tumour cell line. The cells are distributed onto microplates and exposed to the test compounds for 96 hours. The cell viability is then quantified by a colorimetric assay, the Microculture Tetrazolium Assay (Cancer Res., 1987, 47, 939-942).

Chain of His-His-USP7 (aa208-560, [C315A]) (Q93009 208-560 C315A): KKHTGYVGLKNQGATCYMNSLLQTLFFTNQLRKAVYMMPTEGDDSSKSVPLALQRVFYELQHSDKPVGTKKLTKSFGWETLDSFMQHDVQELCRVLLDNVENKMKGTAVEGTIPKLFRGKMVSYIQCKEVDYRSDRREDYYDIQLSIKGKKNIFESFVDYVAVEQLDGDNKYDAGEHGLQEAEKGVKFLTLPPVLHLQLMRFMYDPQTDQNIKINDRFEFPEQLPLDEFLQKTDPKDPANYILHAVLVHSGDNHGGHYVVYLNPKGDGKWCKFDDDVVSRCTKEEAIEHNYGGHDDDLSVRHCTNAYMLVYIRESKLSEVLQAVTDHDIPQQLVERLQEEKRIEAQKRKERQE

Structure (SMILES) | IC50 [1] | IC50 [2]
CN1CC[C@@H](C(=O)N2CCC(O)(Cn3cnc4c(ccn4-c4ccc(Cl)cc4)c3=O)CC2)[C@H](c2ccccc2)C1 [EXAMPLE 153, 7-(4-chlorophenyl)-3-[[4-hydroxy-1-[(3R,4R)-1-methyl-3-phenyl-piperidine-4-carbonyl]-4-piperidyl]methyl]pyrrolo[2,3-d]pyrimidin-4-one] | 48.6 nM | 74.7 nM
COc1ccc(-n2ccc3c(=O)n(CC4(O)CCN(C(=O)[C@@H]5CCNC[C@H]5c5ccccc5)CC4)cnc32)cc1 [EXAMPLE 135, 3-[[4-hydroxy-1-[(3R,4R)-3-phenylpiperidine-4-carbonyl]-4-piperidyl]methyl]-7-(4-methoxyphenyl)pyrrolo[2,3-d]pyrimidin-4-one] | 28.7 nM | 135 nM
COc1ccc(-n2ccc3c(=O)n(CC4(O)CCN(C(=O)[C@@H]5CCN(C(=O)OC(C)(C)C)C[C@H]5c5ccccc5)CC4)cnc32)cc1 [EXAMPLE 40, tert-butyl (3R,4R)-4-[4-hydroxy-4-[[7-(4-methoxyphenyl)-4-oxo-pyrrolo[2,3-d]pyrimidin-3-yl]methyl]piperidine-1-carbonyl]-3-phenyl-piperidine-1-carboxylate] | 49.9 nM | 31.5 nM
O=C([C@@H]1CCNC[C@H]1c1ccccc1)N1CCC(O)(Cn2cnc3c(cnn3-c3ccc4c(c3)OCCO4)c2=O)CC1 [EXAMPLE 165, 1-(2,3-dihydro-1,4-benzodioxin-6-yl)-5-[[4-hydroxy-1-[(3R,4R)-3-phenylpiperidine-4-carbonyl]-4-piperidyl]methyl]pyrazolo[3,4-d]pyrimidin-4-one] | 19.6 nM | 300 nM
O=C([C@@H]1CCNC[C@H]1c1ccccc1)N1CCC(O)(Cn2cnc3c(ccn3-c3ccccc3)c2=O)CC1 [EXAMPLE 101, 3-[[4-hydroxy-1-[(3R,4R)-3-phenylpiperidine-4-carbonyl]-4-piperidyl]methyl]-7-phenyl-pyrrolo[2,3-d]pyrimidin-4-one] | 31.6 nM | 272 nM
COc1ccc(-n2ccc3c(=O)n(CC4(O)CCN(C(=O)[C@@H]5CCN(C)C[C@H]5c5ccccc5)CC4)cnc32)cc1 [EXAMPLE 151, 3-[[4-hydroxy-1-[(3R,4R)-1-methyl-3-phenyl-piperidine-4-carbonyl]-4-piperidyl]methyl]-7-(4-methoxyphenyl)pyrrolo[2,3-d]pyrimidin-4-one] | 52.4 nM | 
CC(C)(C)CC(=O)N1CC[C@@H](C(=O)N2CCC(O)(Cn3cnc4c(ccn4-c4ccccc4)c3=O)CC2)[C@H](c2ccccc2)C1 [EXAMPLE 187, 3-[[1-[(3R,4R)-1-(3,3-dimethylbutanoyl)-3-phenyl-piperidine-4-carbonyl]-4-hydroxy-4-piperidyl]methyl]-7-phenyl-pyrrolo[2,3-d]pyrimidin-4-one] | 88.5 nM | 
O=C([C@@H]1CCNC[C@H]1c1ccccc1)N1CCC(O)(Cn2cnc3c(ccn3-c3ccc(F)cc3)c2=O)CC1 [EXAMPLE 130, 7-(4-fluorophenyl)-3-[[4-hydroxy-1-[(3R,4R)-3-phenylpiperidine-4-carbonyl]-4-piperidyl]methyl]pyrrolo[2,3-d]pyrimidin-4-one] | 37.7 nM | 
CC(C)CN1CC[C@@H](C(=O)N2CCC(O)(Cn3cnc4c(ccn4-c4ccccc4)c3=O)CC2)[C@H](c2ccccc2)C1 [EXAMPLE 163, 3-[[4-hydroxy-1-[(3R,4R)-1-isobutyl-3-phenyl-piperidine-4-carbonyl]-4-piperidyl]methyl]-7-phenyl-pyrrolo[2,3-d]pyrimidin-4-one] | 108 nM | 
